*1 amine or outer side, *2 acyl side, *3 side chain or, on linkers, in order; H or OH if unused. Where a SMILES comes first, the peptide text is derived from it. Bridges are numbered along the chain shown (N, C = ends). [ ]: non-standard residue; d: D form. ξ: configuration not given here. Trp(1-CH2COOH) = N[C@@H](Cc1cn(CC(=O)O)c2ccccc12)C(=O)O; Trp(βS-Me) = C[C@@H](c1c[nH]c2ccccc12)[C@H](N)C(=O)O; Phe(3,4,5-F3) = N[C@@H](Cc1cc(F)c(F)c(F)c1)C(=O)O; X6 = NC(=O)CCC(=O)[C@H](CSCC(=O)[*:2])N[*:1]; NMePhe(4-F) = CN[C@@H](Cc1ccc(F)cc1)C(=O)O; Phe(4-F) = N[C@@H](Cc1ccc(F)cc1)C(=O)O; d(cisHyp) = O=C(O)[C@H]1C[C@@H](O)CN1; Bta = N[C@@H](Cc1csc2ccccc12)C(=O)O; NMeIle(3ξ) = CCC(C)[C@H](NC)C(=O)O; Hyp = O=C(O)[C@@H]1C[C@@H](O)CN1; NMeF = CN[C@@H](Cc1ccccc1)C(=O)O; X1 = O=C([C@H]1COCCN1[*:1])[*:2]; dHyp = O=C(O)[C@H]1C[C@H](O)CN1; NMeNle = CCCC[C@H](NC)C(=O)O; dPip = O=C(O)[C@H]1CCCCN1; hSer = N[C@@H](CCO)C(=O)O; NMeA = CN[C@@H](C)C(=O)O; Orn = NCCC[C@H](N)C(=O)O; dThz = O=C(O)[C@H]1CSCN1; Dab = NCC[C@H](N)C(=O)O; Dap = NC[C@H](N)C(=O)O; ξC = NC(CS)C(=O)O
molecular target: T1, Human PD-L1/PD-1 (Homo sapiens, UniProt Q9NZQ7); test: HTRF Human PD-L1/PD-1 binding assay (PD-1-Ig/PD-L1-His); details: PD-L1-His 10 nM, PD-1-Ig 20 nM; class symbol; read-out: HTRF Human PD-L1/PD-1 Binding Assay IC50 Range
T1 construct: TVMV protease cleavage site (C); made in house; host or cells: HEK293T cells
In short: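 Soluble HEK293T-expressed proteins: hPD-L1-His 10 nM, hPD-1-Ig 20 nM final. Cpd + PD-L1 15 min, + PD-1 15 min, + Eu anti-Ig 1 nM/APC anti-His 20 nM 30 min. Buffer dPBS, 0.1% BSA, 0.05% Tween-20. TR-FRET 665/620.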

T1 sequence (Q9NZQ7 with tags, fused parts or gaps): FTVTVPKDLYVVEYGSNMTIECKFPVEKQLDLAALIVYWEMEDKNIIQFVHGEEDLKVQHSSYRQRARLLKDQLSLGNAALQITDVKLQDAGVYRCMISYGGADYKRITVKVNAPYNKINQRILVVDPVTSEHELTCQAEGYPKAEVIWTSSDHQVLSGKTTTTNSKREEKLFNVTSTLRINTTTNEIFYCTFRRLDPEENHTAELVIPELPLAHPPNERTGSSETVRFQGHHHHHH

| SMILES | IC50 [nM] |
| --- | --- |
| CCCC[C@H]1C(=O)N2CCOC[C@@H]2C(=O)N[C@@H](CC(=O)O)C(=O)N[C@@H](C(C)C)C(=O)N(C)[C@@H](Cc2ccccc2)C(=O)N[C@@H](CCC(=O)O)C(=O)N2CCOC[C@@H]2C(=O)N[C@@H](Cc2c[nH]c3ccccc23)C(=O)N[C@@H](Cc2ccc(O)cc2)C(=O)N[C@@H](CCCN)C(=O)N[C@H](C(=O)NCC(N)=O)CSCC(=O)N[C@@H](Cc2cc(F)c(F)c(F)c2)C(=O)N(C)[C@@H](Cc2ccccc2)C(=O)N1C [Example 9282] ({CH2CO}-[Phe(3,4,5-F3)][NMeF][NMeNle][X1]DV[NMeF]E[X1]WY[Orn]CG-NH2; thioether N-13) | 10 to 99.9 |
| CCCC[C@H]1C(=O)N(C)[C@@H](CCCC)C(=O)N[C@@H](CCC(=O)O)C(=O)N[C@H](C(=O)NCC(N)=O)CSCC(=O)N[C@@H](Cc2ccc(O)cc2)C(=O)N(C)[C@@H](C)C(=O)N[C@@H](CC(N)=O)C(=O)N2CCC[C@H]2C(=O)N[C@@H](CN)C(=O)N[C@@H](CCC(=O)O)C(=O)N2C[C@H](O)C[C@H]2C(=O)N[C@@H](Cc2c[nH]c3ccccc23)C(=O)N[C@@H](CCC(=O)O)C(=O)N[C@@H](Cc2c[nH]c3ccccc23)C(=O)N1C [Example 5243] ({CH2CO}-Y[NMeA]NP[Dap]E[Hyp]WEW[NMeNle][NMeNle]ECG-NH2; thioether N-14) | 100 to 990 |
| CCCC[C@H]1C(=O)N2CCC[C@@H]2C(=O)N[C@@H](CC(=O)O)C(=O)N[C@@H](C(C)C)C(=O)N(C)[C@@H](C(C)CC)C(=O)N[C@@H](CCC(N)=O)C(=O)N2CCC[C@@H]2C(=O)N[C@@H](Cc2c[nH]c3ccccc23)C(=O)N[C@@H](Cc2ccc(O)cc2)C(=O)N[C@@H](CCCN)C(=O)N[C@H](C(=O)NCC(N)=O)CSCC(=O)N[C@@H](Cc2ccc(F)cc2)C(=O)N(C)[C@@H](Cc2ccccc2)C(=O)N1C (stereo partly drawn) [Example 9262] ({CH2CO}-[Phe(4-F)][NMeF][NMeNle][dP]DV[NMeIle(3ξ)]Q[dP]WY[Orn]CG-NH2; thioether N-13) | 1000 to 10000 |
| CCCC[C@H]1C(=O)N2CCC[C@@H]2C(=O)N[C@@H](CCN)C(=O)N[C@@H](C(C)C)C(=O)N(C)[C@@H](Cc2ccccc2)C(=O)N[C@@H](CC(=O)O)C(=O)N2CCCC[C@@H]2C(=O)N[C@@H](Cc2c[nH]c3ccccc23)C(=O)N[C@@H](Cc2ccc(O)cc2)C(=O)N[C@@H](CC(C)C)C(=O)N[C@H](C(=O)NCC(N)=O)CSCC(=O)N[C@@H](Cc2cc(F)c(F)c(F)c2)C(=O)N(C)[C@@H](Cc2ccc(F)cc2)C(=O)N1C [Example 10581] ({CH2CO}-[Phe(3,4,5-F3)][NMePhe(4-F)][NMeNle][dP][Dab]V[NMeF]D[dPip]WYLCG-NH2; thioether N-13) | 10 to 99.9 |
| CCCC[C@H]1C(=O)N2C[C@@H](O)C[C@@H]2C(=O)N[C@@H](CC(=O)O)C(=O)N[C@@H](C(C)C)C(=O)N(C)[C@@H](Cc2ccccc2)C(=O)N[C@@H](CCC(=O)O)C(=O)N2CCOC[C@@H]2C(=O)N[C@@H](Cc2cn(CC(=O)O)c3ccccc23)C(=O)N[C@@H](Cc2ccc(O)cc2)C(=O)N[C@@H](CCN)C(=O)N[C@H](C(=O)CCC(N)=O)CSCC(=O)N[C@@H](Cc2cc(F)c(F)c(F)c2)C(=O)N(C)[C@@H](Cc2ccccc2)C(=O)N1C [Example 9271] (cyclo(DV[NMeF]E[X1][Trp(1-CH2COOH)]Y[Dab][X6][Phe(3,4,5-F3)][NMeF][NMeNle][dHyp])) | 1 to 9.9 |
| CCCC[C@H]1C(=O)N2C[C@H](O)C[C@@H]2C(=O)N[C@@H](CC(=O)O)C(=O)N[C@@H](C(C)C)C(=O)N(C)[C@@H](Cc2ccccc2)C(=O)N[C@@H](CCC(=O)O)C(=O)N2CSC[C@@H]2C(=O)N[C@@H](Cc2c[nH]c3ccccc23)C(=O)N[C@@H](Cc2ccc(O)cc2)C(=O)N[C@@H](CCO)C(=O)N[C@H](C(=O)NCC(N)=O)CSCC(=O)N[C@@H](Cc2cc(F)c(F)c(F)c2)C(=O)N(C)[C@@H](Cc2ccccc2)C(=O)N1C [Example 10150] ({CH2CO}-[Phe(3,4,5-F3)][NMeF][NMeNle][d(cisHyp)]DV[NMeF]E[dThz]WY[hSer]CG-NH2; thioether N-13) | 1 to 9.9 |
| CCCC[C@H]1C(=O)N(C)[C@@H](C)C(=O)N[C@@H](CCCNC(=N)N)C(=O)NC(C(=O)N[C@@H](CO)C(N)=O)CSCC(=O)N[C@@H](Cc2ccc(O)cc2)C(=O)N(C)[C@@H](C)C(=O)N[C@@H](CC(N)=O)C(=O)N2CCC[C@H]2C(=O)N[C@@H](CO)C(=O)N[C@H](CC(C)C)C(=O)N2CCC[C@H]2C(=O)N[C@@H](Cc2c[nH]c3ccccc23)C(=O)N[C@@H](CO)C(=O)N[C@@H](Cc2csc3ccccc23)C(=O)N1C (stereo partly drawn) [Example 9122] ({CH2CO}-Y[NMeA]NPS[dL]PWS[Bta][NMeNle][NMeA]R[ξC]S-NH2; thioether N-14) | 10 to 99.9 |

Next, values leading:

| IC50 [nM] | SMILES |
| --- | --- |
| 1 to 9.9 | CCCC[C@H]1C(=O)N(C)[C@@H](CCCC)C(=O)N[C@@H](CCC(=O)O)C(=O)N[C@H](C(=O)NCC(N)=O)CSCC(=O)N[C@@H](Cc2ccc(O)cc2)C(=O)N(C)[C@@H](C)C(=O)N[C@@H](CC(N)=O)C(=O)N2CCC[C@H]2C(=O)N[C@@H](CN)C(=O)N[C@@H](CC(C)C)C(=O)N2C[C@H](O)C[C@H]2C(=O)N[C@@H](Cc2c[nH]c3ccccc23)C(=O)N[C@@H](CCN)C(=O)N[C@@H](Cc2c[nH]c3ccccc23)C(=O)N1C [Example 5161] ({CH2CO}-Y[NMeA]NP[Dap]L[Hyp]W[Dab]W[NMeNle][NMeNle]ECG-NH2; thioether N-14) |
| 1 to 9.9 | CCCC[C@H]1C(=O)N2CCC[C@@H]2C(=O)N[C@@H](CC(=O)O)C(=O)N[C@@H](C(C)C)C(=O)N(C)[C@@H](Cc2ccccc2)C(=O)N[C@@H](Cc2ccc(O)cc2)C(=O)N2CCC[C@@H]2C(=O)N[C@@H](Cc2c[nH]c3ccccc23)C(=O)N[C@@H](Cc2ccc(O)cc2)C(=O)N[C@@H](CO)C(=O)N[C@H](C(=O)NCC(N)=O)CSCC(=O)N[C@@H](Cc2cc(F)c(F)c(F)c2)C(=O)N(C)[C@@H](Cc2ccccc2)C(=O)N1C [Example 10094] ({CH2CO}-[Phe(3,4,5-F3)][NMeF][NMeNle][dP]DV[NMeF]Y[dP]WYSCG-NH2; thioether N-13) |
| 1 to 9.9 | CCCC[C@H]1C(=O)N(C)[C@@H](CCCC)C(=O)N[C@@H](C)C(=O)N[C@H](C(=O)NCC(N)=O)CSCC(=O)N[C@@H](Cc2ccc(O)cc2)C(=O)N(C)[C@@H](C)C(=O)N[C@@H](CC(=O)O)C(=O)N2CCC[C@H]2C(=O)N[C@@H](Cc2c[nH]cn2)C(=O)N[C@@H](CCC(N)=O)C(=O)N2C[C@H](O)C[C@H]2C(=O)N[C@@H]([C@@H](C)c2c[nH]c3ccccc23)C(=O)N[C@@H](CO)C(=O)N[C@@H](Cc2c[nH]c3ccccc23)C(=O)N1C [Example 10553] ({CH2CO}-Y[NMeA]DPHQ[Hyp][Trp(βS-Me)]SW[NMeNle][NMeNle]ACG-NH2; thioether N-14) |
| 1 to 9.9 | CCCC[C@H]1C(=O)N(C)[C@@H](CCCC)C(=O)N[C@@H](CN)C(=O)N[C@H](C(N)=O)CSCC(=O)N[C@@H](Cc2ccc(O)cc2)C(=O)N(C)[C@@H](C)C(=O)N[C@@H](CC(N)=O)C(=O)N2CCC[C@H]2C(=O)N[C@@H](CN)C(=O)N[C@@H](CC(C)C)C(=O)N2C[C@H](O)C[C@H]2C(=O)N[C@@H](Cc2c[nH]c3ccccc23)C(=O)N[C@@H](CO)C(=O)N[C@@H](Cc2cn(CC(=O)O)c3ccccc23)C(=O)N1C [Example 6140] |
| 1 to 9.9 | CCCC[C@H]1C(=O)N(C)[C@@H](CCCC)C(=O)N[C@@H](CC(C)C)C(=O)N[C@H](C(=O)NCC(N)=O)CSCC(=O)N[C@@H](Cc2ccc(O)cc2)C(=O)N(C)[C@@H](C)C(=O)N[C@@H](CC(N)=O)C(=O)N[C@H](C)C(=O)N[C@@H](Cc2cnc[nH]2)C(=O)N[C@@H](CCC(N)=O)C(=O)N2C[C@H](O)C[C@H]2C(=O)N[C@@H](Cc2c[nH]c3ccccc23)C(=O)N[C@@H](CO)C(=O)N[C@@H](Cc2c[nH]c3ccccc23)C(=O)N1C [Example 6262] ({CH2CO}-Y[NMeA]N[dA]HQ[Hyp]WSW[NMeNle][NMeNle]LCG-NH2; thioether N-14) |
| 1 to 9.9 | CCCC[C@H]1C(=O)N(C)[C@@H](CCCC)C(=O)N[C@@H](CCC(=O)O)C(=O)N[C@H](C(=O)NCC(N)=O)CSCC(=O)N[C@@H](Cc2ccc(O)cc2)C(=O)N(C)[C@@H](C)C(=O)N[C@@H](CC(N)=O)C(=O)N2CCC[C@H]2C(=O)N[C@@H](Cc2c[nH]cn2)C(=O)N[C@@H](CCC(=O)O)C(=O)N2C[C@H](O)C[C@H]2C(=O)N[C@@H](Cc2c[nH]c3ccccc23)C(=O)N[C@@H](CO)C(=O)N[C@@H](Cc2c[nH]c3ccccc23)C(=O)N1C [Example 5150] ({CH2CO}-Y[NMeA]NPHE[Hyp]WSW[NMeNle][NMeNle]ECG-NH2; thioether N-14) |
| 1 to 9.9 | CCCC[C@H]1C(=O)N(C)[C@@H](CCCC)C(=O)N[C@@H](CCCNC(=N)N)C(=O)NC(C(=O)NCC(N)=O)CSCC(=O)N[C@@H](Cc2ccc(O)cc2)C(=O)N(C)[C@@H](C)C(=O)N[C@@H](CC(N)=O)C(=O)N2CCC[C@H]2C(=O)N[C@@H](CC(N)=O)C(=O)N[C@@H](CC(C)C)C(=O)N2CCC[C@H]2C(=O)N[C@@H](Cc2c[nH]c3ccccc23)C(=O)N[C@@H](CCO)C(=O)N[C@@H](Cc2c[nH]c3ccccc23)C(=O)N1C (stereo partly drawn) [Example 9128] ({CH2CO}-Y[NMeA]NPNLPW[hSer]W[NMeNle][NMeNle]R[ξC]G-NH2; thioether N-14) |
| 1 to 9.9 | CCCC[C@H]1C(=O)N(C)[C@@H](CCCC)C(=O)N[C@@H](CCCNC(=N)N)C(=O)NC(C(=O)NCC(N)=O)CSCC(=O)N[C@@H](Cc2ccc(O)cc2)C(=O)N(C)[C@@H](C)C(=O)N[C@@H](CC(N)=O)C(=O)N2CCC[C@H]2C(=O)N[C@@H](CCO)C(=O)N[C@@H](CC(C)C)C(=O)N2C[C@H](O)C[C@H]2C(=O)N[C@@H](Cc2c[nH]c3ccccc23)C(=O)N[C@@H](CO)C(=O)N[C@@H](Cc2c[nH]c3ccccc23)C(=O)N1C (stereo partly drawn) [Example 9127] ({CH2CO}-Y[NMeA]NP[hSer]L[Hyp]WSW[NMeNle][NMeNle]R[ξC]G-NH2; thioether N-14) |

From patent publication US10538555B2, “Macrocyclic inhibitors of the PD-1/PD-L1 and CD80(B7-1)/PD-L1 protein/protein interactions” (BRISTOL-MYERS SQUIBB COMPANY, priority 2014, dated 2020)
